# Test results reported in ChEMBL document CHEMBL1629461, “The novel benzopyran class of selective cyclooxygenase-2 inhibitors. Part 2: the second clinical candidate having a shorter and favorable human half-life” (Bioorg Med Chem Lett, 2010).
# Columns and labels:
# [1] = species: Rattus norvegicus; assay: animal or person; conditions: read-out: INH
# [2] = Half life in rat; assay type: ADME, organism-based; conditions: in vivo
# [3] = species: Rattus norvegicus; assay: animal or person; conditions: read-out: INH; remark: listed apart in the source
# [4] = species: Rattus norvegicus; assay: Antiinflammatory activity in rat air pouch model assessed as inhibition of carrageenan-induced PGE2 production; assay type: functional
# [5] = test system: Rattus norvegicus; assay: Antiinflammatory activity in rat air pouch model assessed as inhibition of carrageenan-induced paw edema; assay type: functional
# [6] = (§1) Half life in human; assay type: ADME, organism-based; conditions: in vivo
# [7] = species: Rattus norvegicus; assay: Antiinflammatory activity in rat air pouch model assessed as inhibition of carrageenan-induced inflammatory hyperalgesia; assay type: functional
# [8] = species: Rattus norvegicus; assay: Antiarthritic activity in rat assessed as inhibition of adjuent-induced arthritic pain; assay type: functional
# [9] = Half life in dog; assay type: ADME, organism-based, Canis lupus familiaris; conditions: in vivo
# [10] = species: Homo sapiens; assay: as §1; assay type: ADME, organism-based; conditions: in vivo
# [11] = test system: Liver microsomes; assay: Metabolic stability in human liver microsomes assessed as compound remaining; assay type: ADME, Microsome
# [12] = test system: Cynomolgus monkey; assay: Half life in cynomolgus monkey; assay type: ADME, organism-based, Macaca fascicularis; conditions: in vivo
# [13] = biological target: T1, Prostaglandin G/H synthase 2 (Homo sapiens, UniProt P35354)
# T1 sequence (P35354 whole entry): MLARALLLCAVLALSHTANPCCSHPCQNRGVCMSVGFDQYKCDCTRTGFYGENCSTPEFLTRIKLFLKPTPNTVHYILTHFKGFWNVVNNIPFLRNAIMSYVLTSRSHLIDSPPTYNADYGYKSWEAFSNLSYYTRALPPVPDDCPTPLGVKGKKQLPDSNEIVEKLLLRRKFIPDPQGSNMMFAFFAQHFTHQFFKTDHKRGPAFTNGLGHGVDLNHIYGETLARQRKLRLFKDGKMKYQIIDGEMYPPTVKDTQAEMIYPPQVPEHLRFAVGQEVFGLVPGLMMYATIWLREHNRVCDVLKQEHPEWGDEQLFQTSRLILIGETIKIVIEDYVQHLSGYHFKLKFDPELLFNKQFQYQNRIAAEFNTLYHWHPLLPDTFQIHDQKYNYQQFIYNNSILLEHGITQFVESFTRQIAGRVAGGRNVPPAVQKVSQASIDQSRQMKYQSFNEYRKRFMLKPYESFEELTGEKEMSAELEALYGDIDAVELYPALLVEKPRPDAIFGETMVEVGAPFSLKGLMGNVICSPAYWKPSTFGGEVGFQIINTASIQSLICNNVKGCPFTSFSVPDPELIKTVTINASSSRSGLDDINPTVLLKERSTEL
# [14] = biological target: Prostaglandin G/H synthase 1 (Homo sapiens, UniProt P23219)
# Prostaglandin G/H synthase 1, sequence (P23219 whole entry): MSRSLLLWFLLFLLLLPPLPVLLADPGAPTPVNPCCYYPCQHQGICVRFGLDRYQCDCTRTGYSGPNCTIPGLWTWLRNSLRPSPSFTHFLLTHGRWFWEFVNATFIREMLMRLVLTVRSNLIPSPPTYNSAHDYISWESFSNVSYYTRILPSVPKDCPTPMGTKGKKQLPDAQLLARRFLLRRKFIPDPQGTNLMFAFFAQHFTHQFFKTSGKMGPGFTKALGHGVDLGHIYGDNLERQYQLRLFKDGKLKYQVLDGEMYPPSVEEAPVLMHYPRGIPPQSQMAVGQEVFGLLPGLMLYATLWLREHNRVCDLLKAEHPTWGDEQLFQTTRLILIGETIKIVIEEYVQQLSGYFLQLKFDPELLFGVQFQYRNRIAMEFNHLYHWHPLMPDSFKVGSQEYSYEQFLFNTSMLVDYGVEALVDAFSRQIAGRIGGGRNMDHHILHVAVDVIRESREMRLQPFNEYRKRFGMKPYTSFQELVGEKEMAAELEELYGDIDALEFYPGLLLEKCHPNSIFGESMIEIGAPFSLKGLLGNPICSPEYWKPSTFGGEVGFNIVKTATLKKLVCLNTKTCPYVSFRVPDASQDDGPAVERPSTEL
compound,measurement,setting,value
CCC(CC)COc1cc2c(cc1Cl)C=C(C(=O)O)C(C(F)(F)F)O2 (configuration not stated),inhibition in vivo at 10 mg/kg,[1],42%
CC(C)(C)c1cc2c(cc1Cl)C=C(C(=O)O)[C@@H](C(F)(F)F)O2 [TIGEMOCOXIB],half-life,[2],4 h
same,inhibition in vivo at 2 mg/kg,[3],100%
same,ED50,[4],0.43 mg/kg
same,ED50,[5],2.7 mg/kg
same,half-life,[6],34 h
same,ED50,[7],4 mg/kg
same,ED50,[8],0.08 mg/kg
same,half-life,[9],18 h
O=C(O)C1=Cc2cc(Cl)cc(Cl)c2O[C@@H]1C(F)(F)F,ED50,[4],0.54 mg/kg
same,ED50,[5],0.54 mg/kg
same,t1/2,[10],360 h
same,Stability,[11],100%
same,ED50,[7],2.6 mg/kg
same,ED50,[8],0.03 mg/kg
same,t1/2,[12],14.2 h
CC(C)CN(C)c1cc2c(cc1Cl)C=C(C(=O)O)C(C(F)(F)F)O2 (configuration not stated),inhibition in vivo at 10 mg/kg,[1],52%
CC(C)(C)c1cc2c(cc1Cl)C=C(C(=O)O)C(C(F)(F)F)O2 (configuration not stated),Stability,[11],51%
same,inhibition in vivo at 10 mg/kg,[1],100%
CC(C)(C)Oc1c(Cl)cc2c(c1Cl)OC(C(F)(F)F)C(C(=O)O)=C2 (configuration not stated),IC50,[13],< 28 nM
same,IC50,[14],< 140 nM
CC(C)CCc1cc2c(cc1Cl)C=C(C(=O)O)C(C(F)(F)F)O2 (configuration not stated),inhibition in vivo at 10 mg/kg,[1],51%
CCCc1cc2c(cc1Cl)C=C(C(=O)O)C(C(F)(F)F)O2 (configuration not stated),inhibition in vivo at 10 mg/kg,[1],49%
CC(C)CSc1cc2c(cc1Cl)C=C(C(=O)O)C(C(F)(F)F)O2 (configuration not stated),inhibition in vivo at 10 mg/kg,[1],30%
CCOc1c(Cl)ccc2c1C=C(C(=O)O)C(C(F)(F)F)O2 (configuration not stated),IC50,[13],> 100000 nM
same,IC50,[14],> 100000 nM
O=C(O)C1=Cc2cc(Cl)c(OCC3CCCC3)c(Cl)c2OC1C(F)(F)F (configuration not stated),IC50,[13],< 6 nM
same,IC50,[14],< 140 nM
CC(C)COc1c(Cl)cc2c(c1Cl)O[C@@H](C(F)(F)F)C(C(=O)O)=C2,IC50,[13],< 28 nM
Nc1c(Cl)ccc2c1C=C(C(=O)O)C(C(F)(F)F)O2 (configuration not stated),IC50,[14],> 100000 nM
CCC(CC)COc1c(Cl)cc2c(c1Cl)OC(C(F)(F)F)C(C(=O)O)=C2 (configuration not stated),IC50,[13],< 21 nM
O=C(O)C1=Cc2cc(Cl)c(OCC3CCCCC3)c(Cl)c2OC1C(F)(F)F (configuration not stated),IC50,[13],< 34 nM
